{"source": "patent US20070069122A1", "about": "“In situ polypeptide identification” (priority 2005, published 2007)", "key": {"kidney proximal tubules": {"test_system": "kidney proximal tubules", "experiment": "Histology of kidney after gentamicin treatment (model system for nephrotoxicity)", "format": "in vivo, rat", "details": "rats, 100 mg/kg/day sc for 7 days", "source_text": "Permission for animal studies was obtained from the local regulatory agencies, and all study protocols were in compliance with animal welfare guidelines. Male HanBrl: Wistar rats of approximately 12 weeks of age (300g±20%) were obtained from BRL, Füllinsdorf, Switzerland. The animals were housed individually in Macrolone cages with wood shavings as bedding at […] and 50% relative humidity in a 12-hr light/dark rhythm with free access to water and Kliba 3433 rodent pellets (Provimi Kliba AG, Kaiseraugst, Switzerland).\n(§1) Animals were treated for 7 consecutive days with 100 mg/kg/day Gentamicin (dissolved in saline) or vehicle by subcutaneous (sc) injections and sacrificed 24 hours after the last application by CO2 inhalation. Immediately preceding sacrifice, terminal blood samples for clinical chemistry investigations were collected from the retroorbital sinus under isofluoran anesthesia.\nRepresentative kidney samples were fixed in 10% neutral buffered formalin. All samples were processed using routine procedures and embedded in Paraplast. Tissue sections approximately 2-3 microns were cut and stained with hematoxylin-eosin (HE) or periodic acid-Schiff (PAS).\nMarked degeneration/regeneration of proximal tubules (grade 4) was clearly observed in rats treated with 100 mg/kg/day gentamicin for 7 days. This finding was correlated to the analysis of rat kidney thin sections by MALDI IMS. […]"}, "[1]": {"test_system": "transthyretin (prealbumin)", "experiment": "Western blot of kidney cortex cytosolic fraction and HPLC fraction D10", "format": "in vivo, rat", "details": "kidney cortex cytosolic fraction", "method": "Tissue extracts from control and treated rat kidneys were obtained by homogenization of a piece of cortex in a 10 mM Tris-HCl buffer pH 7.6 containing 250 mM sucrose and protease inhibitors (Roche Complete). The tissue extract was subjected to three successive centrifugation steps at 4° C. (10 min at 680 g; 10 min at 10 000 g; 1 h at 100 000 g) whereas the pellets were discarded and the supernatant of the last centrifugation step was kept as the kidney cytosolic fraction.\n1 μl of the kidney cytosolic fraction and of the relevant HPLC fraction were subjected to electrophoresis using a 4-20% Tris-Glycine SDS-PAGE gel (Invitrogen) and the proteins were subsequently transferred to a PVDF membrane. Blots were blocked in 5% milk in PBS containing 0.1% Tween 20 for 1 h and incubated overnight at room temperature with an […] (Abcam) in PBS containing 5% milk and 0.1% Tween 20. After washing with PBS containing 0.1% Tween 20, blots were incubated for 1 h with horseradish peroxidase conjugated with an anti-sheep IgG antibody (Silenus Laboratories). Antibody binding was detected using ECL western blotting reagents (Amersham)."}, "transthyretin": {"test_system": "transthyretin", "experiment": "Immunohistochemical examination of kidney", "format": "in vivo", "details": "treated versus control rat, whole kidney sections", "source_text": "FIG. 8: Immunohistochemical examination of kidney from control and gentamicin-treated rat. […] High magnification photomicrographs from the cortex (C, E) vs. the medulla (D, F) reveal specific localization of TTR immunoreactivity in the cortex tubules of the treated kidney. Transthyretin immunoreactivity is visualized by the grey precipitate of diaminobenzidine-Ni counterstained with cresyl violet."}, "rat kidney cortex": {"test_system": "rat kidney cortex", "experiment": "MALDI IMS profiling of rat kidney cortex thin sections, gentamicin-treated versus control", "format": "in vivo", "method": "as §1\nMarked degeneration/regeneration of proximal tubules (grade 4) was clearly observed in rats treated with 100 mg/kg/day gentamicin for 7 days. This finding was correlated to the analysis of rat kidney thin sections by MALDI IMS. 9 control and 9 gentamicin-treated rat kidneys thin sections (3 animals, 3 sections from each animal; the thin section was spotted with matrix as shown in FIG. 1) were subjected to mass spectrometric analysis as described below.\nKidneys were dissected from rats, snap frozen on dry ice and stored at −80° C. prior to further processing. 12 μm sections were obtained on a cryostat (LEICA CM 3000, Leica Microsystems) at −18° C. and deposited on ITO-coated conductive glass slides (Indium Tin Oxide 50×75×0.9 mm, Delta Technologies). Sample preparation were performed according to published procedure (Schwartz, S. A., Reyzer, M. L., and Caprioli, R. M. (2003) Journal of Mass Spectrometry 38, 699-708). Tissue sections were then fixed by immersion in ethanol bathes and let to dry 30 minutes under vacuum. During all the process the sections were stored as much as possible under vacuum. Deposition of MALDI matrix was done manually with a pipette. 200 nL of freshly prepared sinapinic acid solution (3,5-dimethoxy-4-hydroxycinnaminic acid, Fluka, 20 mg/ml in water/acetonitrile 1:1, 0.1% trifluoroacetic acid) was deposited onto the tissue. After crystallization, an additional 200 nL was layered onto the spots and the matrix was let to dry at room temperature. The sample was then kept under vacuum if not analyzed immediately by mass spectrometry.\nMALDI MS spectra were acquired using an UltraFlex MALDI ToF/ToF instrument (Bruker Daltonics) with a standard 337-nm N2 laser operating at 50Hz and a laser spot size of 50 μm. The instrument was operated in positive linear mode (2 kDa-30 kDa) at constant laser power. A total of 8 times 100 laser shots were averaged for each manually deposited matrix droplets. Spectra were externally calibrated using a protein calibration standard solution (Insulin, Ubiquitin I, Cytochrom C, Myoglobin; Bruker Daltonics). Internal calibration was performed post-acquisition using redundant known peaks from the spectra (Hemoglobin α-chain, Thymosin β-4, Cytochrome c oxidase polypeptide VIIa L, Ubiquitin, Cytochrome c oxidase polypeptide VIb).\nThe spectra were processed using a combination of tools available commercially and developed in-house at Vanderbilt University. Baseline subtraction, normalization, peak detection, and spectral alignment were performed using the ProTS-Data software (Efeckta Technologies, Inc.) All spectra were baseline corrected to remove contributions of chemical noise to the signal. This step was performed by locally estimating the baseline and subtracting the […] from the raw data. For the present data set the software was set to consider a window width 10 times that of the peak width to account for the differences in resolution for different m/z regions. The baseline corrected spectra were normalized in intensity by scaling the spectra to a common total ion current. Peak detection was performed using ProTS-Data and a list of 13 common peaks was selected to be internal alignment points using a quadratic calibration function. The criterion used to select common peaks were that the peak must occur in greater than 80% of the spectra to be aligned, must not have interfering or overlapping peaks, and the peaks must have a standard deviation of the observed centroid value less that 7 mass units. […]"}, "[2]": {"details": "kidney cortex, 100 mg/kg/day sc 7 days"}}, "data": [{"substance": "Gentamicin", "values": [{"measurement": "degeneration/regeneration of proximal tubules, grade", "setting": "kidney proximal tubules", "value": 4}, {"measurement": "transthyretin abundance in kidney by Western blot, gentamicin-treated versus control rats", "setting": "[1]", "value": "significantly more abundant"}, {"measurement": "transthyretin immunoreactivity in kidney cortex", "setting": "transthyretin", "value": "high levels of transthyretin immunoreactivity"}, {"measurement": "presence of species 12959 (transthyretin S28-Q146) in mass spectrum", "setting": "rat kidney cortex; in situ and in HPLC fraction D10", "value": "only present in the mass spectrum of the gentamicin-treated sample"}, {"measurement": "doubly-charged species at m/z 6480, behaviour in treated versus control cortex", "setting": "rat kidney cortex; kidney cortex", "value": "showed a similar behavior"}, {"measurement": "Average S/N (gent), peak m/z 3343.714", "setting": "rat kidney cortex; [2]", "value": 2}, {"measurement": "Average S/N (gent), peak m/z 4010.498", "setting": "rat kidney cortex; [2]", "value": 1}, {"measurement": "Average S/N (gent), peak m/z 4107.083", "setting": "rat kidney cortex; [2]", "value": 5}, {"measurement": "Average S/N (gent), peak m/z 4141.907", "setting": "rat kidney cortex; [2]", "value": 1}, {"measurement": "Average S/N (gent), peak m/z 4181.504", "setting": "rat kidney cortex; [2]", "value": 0}, {"measurement": "Average S/N (gent), peak m/z 4497.792", "setting": "rat kidney cortex; [2]", "value": 0}, {"measurement": "Average S/N (gent), peak m/z 5096.886", "setting": "rat kidney cortex; [2]", "value": 5}, {"measurement": "Average S/N (gent), peak m/z 5222.249", "setting": "rat kidney cortex; [2]", "value": 0}, {"measurement": "Average S/N (gent), peak m/z 5301.852", "setting": "rat kidney cortex; [2]", "value": 0}, {"measurement": "Average S/N (gent), peak m/z 5355.669", "setting": "rat kidney cortex; [2]", "value": 1}, {"measurement": "Average S/N (gent), peak m/z 5478.957", "setting": "rat kidney cortex; [2]", "value": 2}, {"measurement": "Average S/N (gent), peak m/z 6080.035", "setting": "rat kidney cortex; [2]", "value": 1}, {"measurement": "Average S/N (gent), peak m/z 6498.996", "setting": "rat kidney cortex; [2]", "value": 0}, {"measurement": "Average S/N (gent), peak m/z 6912.956", "setting": "rat kidney cortex; [2]", "value": 6}, {"measurement": "Average S/N (gent), peak m/z 6938.997", "setting": "rat kidney cortex; [2]", "value": 1}, {"measurement": "Average S/N (gent), peak m/z 7083.364", "setting": "rat kidney cortex; [2]", "value": 6}, {"measurement": "Average S/N (gent), peak m/z 12959.23", "setting": "rat kidney cortex; [2]", "value": 5}, {"measurement": "Average S/N (gent), peak m/z 13004.71", "setting": "rat kidney cortex; [2]", "value": 0}, {"measurement": "Average S/N (gent), peak m/z 17100.68", "setting": "rat kidney cortex; [2]", "value": 0}, {"measurement": "Average S/N (gent), peak m/z 17176.83", "setting": "rat kidney cortex; [2]", "value": 0}]}]}
